Measured values as given in US20200405793A1, “USE OF […] PATHWAY INHIBITOR AND […] PREPARING ANTI-TUMOR DRUG” (GUANGZHOU VIROTECH PHARMACEUTICAL CO., LTD., priority 2017, published 2020).
“Also recorded” adds a separate entry of the source.

Tests used:
alphavirus M1 = assay: Mevalonate pathway inhibiting compounds acting on tumor cells with M1 virus: virus replication; assay type: cell-based
HCT-116 cells [1] = assay: MTT cell viability, Tipifarnib and M1 virus; assay type: cell-based, human; conditions: Tipifarnib 50 nM, M1 virus MOI=1, 48 h
From the text: (§1) Each group of experiments was repeated 3 times.

SW1990 cells = assay: MTT cell viability, Tipifarnib and M1 virus; assay type: cell-based, human; conditions: Tipifarnib 50 nM, M1 virus MOI=1, 48 h
From the text: as §1

[2] = system: HCT-116 or SW 1990 transplanted tumors; assay: Growth of subcutaneous transplanted tumors in nude mice; assay type: in vivo, BALB/c nude mice; conditions: Tipifarnib 500 μg/kg/d i.p.; M1 2×10^9 PFU/kg/d tail vein; 6 consecutive injections; vs control group; both tumor models
Description: This experiment used a randomized, single-blind design. 5×10^6 HCT-116 or SW 1990 cells were injected subcutaneously into the dorsal flank of the 4 week old BALB/c nude mouse.
When the tumor size reached 50 mm3, the mice were divided into […], including untreated control group, Tipifarnib alone group (500 μg/kg/d by intraperitoneal injection), M1 infection alone group (2×10^9 PFU/kg/d by tail vein injection of M1 virus) and Tipifarnib/M1 combined group (same dose of Tipifarnib and M1 virus), and treated with 6 consecutive injections. The length, width and weight of the tumor were measured every two days, and the volume of the tumor was measured according to the formula (length×width^2)/2. One way ANOVA was performed after measuring tumor volume, ***indicates p<0.001.

HCT-116 cells [3] = assay: Cell morphology after fluvastatin and M1 virus treatment; assay type: cell-based, human; conditions: fluvastatin 2 μM, M1 virus MOI=1, 48 hours
Description: (§2) a) Cell culture: human intestinal cell carcinoma strain HCT-116 was grown in a DMEM complete medium containing 10% FBS, 100 U/ml penicillin and 0.1 mg/ml streptomycin; all cell strains were cultured in a constant temperature closed incubator at 5% CO2, 37° C. (95% RH) and observed by the inverted microscope. Cells were passaged once for approximately 2-3 days and the cells in logarithmic growth phase were used for formal experiments.
c) Cells were inoculated into a 24-well plate at 30,000 cells/well; after the cells were treated with fluvastatin 2 (μM), they were infected with M1 virus (MOI=1); and the changes of cell morphology were observed under the inverted phase contrast microscope after 48 hours.

[4] = system: M1 viral proteins (structural protein E1 and non-structural protein NS3); assay: Immunoblot of M1 viral proteins after statin treatment of M1-infected HCT-116 cells; assay type: cell-based, M1 virus; conditions: concentration not given
Description: as §2
Cells were infected with M1 virus (MOI=1), treated with M1 virus (MOI=1) combined with fluvastatin or atorvastatin (1 and 10 μM), and cellular proteins were harvested after 24 hours and immunoblotted.

[5] = system: M1 virus structural protein E1 and nonstructural protein NS3; assay: Immunoblot of M1 viral proteins after siRNA interference of mevalonate pathway genes; assay type: cell-based; conditions: HCT-116; siRNA HMGCR, SQLE, FNTB, PGGT1B, RABGGTB 25, 25, 4, 20, 20 nM; M1 1 MOI; 24 hours
Description: (§3) The cells were inoculated into a 35 mm culture dish, cultured until the confluence degree of the cells reaches 60% and subjected to the following interference treatment: firstly, a Lipofectamine RNAiMAX solution was prepared with Opti-MEM by diluting according to 2 μL: 198 μL per culture dish and uniformly mixing; secondly, an siRNA solution was prepared with Opti-MEM by diluting according to 1.8 μL: 198 μL per culture dish, wherein the final concentration of siRNA interfering HMGCR, SQLE, FNTB, PGGT 1B and RABGGTB (specifically see FIG. 9 and the description of the Figures) were 25, 25, 4, 20 and 20 nM respectively, and mixing gently; finally, the diluted Lipofectamine RNAiMAX and siRNA were mixed, and stood for 15 minutes at room temperature; the mixed solution was added into a culture dish containing 1.5 mL of serum-free culture medium; and the medium was changed to a complete medium after 24 hours, and infected with M1 virus (1MOI). Cell lysates were collected after 24 hours and immunoblotted.

[6] = system: HCT-116, Capan-1 and SW 1990 cells; assay: Cell morphology under inverted phase contrast microscope after siRNA interference of HMGCR and M1 virus infection; assay type: cell-based, human; conditions: HCT-116, Capan-1, SW 1990; siRNA 25 nM; M1 virus 1 MOI; 48 h after infection
Description: as §3, with “was 25 nM,” for “interfering HMGCR, SQLE, FNTB, PGGT 1B and RABGGTB (specifically see FIG. 9 and the description of the Figures) were 25, 25, 4, 20 and 20 nM respectively,”, “The changes in cell morphology” for “Cell lysates”, “observed” for “collected”, “48 h under the inverted phase contrast microscope.” for “24 hours and immunoblotted.”

Row | Compound | replication of the alphavirus M1 (alphavirus M1) | expression of M1 virus protein [4] | other results
1 | COC(=O)[C@H](CCSC)NC(=O)c1ccc(NC[C@@H](N)CS)cc1-c1ccccc1.O=C(O)C(F)(F)F [FTI277] | promote replication of the alphavirus Ml | – | –
2 | Cn1cncc1[C@@](N)(c1ccc(Cl)cc1)c1ccc2c(c1)c(-c1cccc(Cl)c1)cc(=O)n2C [Tipifarnib] | promote replication of the alphavirus Ml | – | tumor cell survival rate (HCT-116 cells [1]): 80%; tumor cell survival rate (SW1990 cells): 90%; tumor volume [2]: only a slight reduction in tumor volume
3 | CC(C)n1c(/C=C/[C@@H](O)C[C@@H](O)CC(=O)[O-])c(-c2ccc(F)cc2)c2ccccc21.[Na+] [fluvastatin] | promote replication of the alphavirus Ml | significantly increase the protein expression of M1 virus; also recorded: promote the expression of M1 virus protein | changes of cell morphology (HCT-116 cells [3]): induced lesions in a small number of cells
4 | AACCCAAUGCCCAUGUUCCdTdT (as printed in the source, key not given here) [siRNA targeting HMGCR, siRNA interfering the HMG-CoA reductase gene (HMGCR)] | – | – | expression of structural protein E1 and nonstructural protein NS3 of the virus [5]: increased significantly; also recorded: significantly increase the protein expression of M1 virus; changes in cell morphology [6]: did not affect the morphology of tumor cells
5 | atorvastatin | promote replication of the alphavirus Ml | significantly increase the protein expression of M1 virus; also recorded: promote the expression of M1 virus protein | –
